Experimental data published in US5326776A, “Angiotensin II receptor antagonists” (Abbott Laboratories, priority 1993, dated 1994).

tested on: angiotensin II; assay: not given; conditions: background statement; cited from earlier work

SMILES	antagonist of the actions of angiotensin II
CNCC(=O)N[C@@H](CCCN=C(N)N)C(=O)N[C@H](C(=O)N[C@@H](Cc1ccc(O)cc1)C(=O)N[C@H](C(=O)N[C@@H](Cc1cnc[nH]1)C(=O)N1CCC[C@H]1C(=O)N[C@@H](C)C(=O)O)C(C)C)C(C)C [saralasin, [Sar^1,Ala^8] angiotensin II]	potent antagonist of the actions of angiotensin II

tested on: not given; assay: not given; conditions: peptide; cited from earlier work

SMILES	oral bioavailability
CNCC(=O)N[C@@H](CCCN=C(N)N)C(=O)N[C@H](C(=O)N[C@@H](Cc1ccc(O)cc1)C(=O)N[C@H](C(=O)N[C@@H](Cc1cnc[nH]1)C(=O)N1CCC[C@H]1C(=O)N[C@@H](C)C(=O)O)C(C)C)C(C)C [saralasin, [Sar^1,Ala^8] angiotensin II]	very poor oral bioavailability

target: T1, angiotensin II receptor (Oryctolagus cuniculus, UniProt P34976); assay: Antagonism of contraction of rabbit aorta (angiotensin II functional assay, isolated rabbit aorta, pA2); parameters: species or system rabbit (female New Zealand White); conditions: angiotensin II as agonist, 30 minutes incubation with antagonist, Schild analysis, negative logarithm of [A]2
T1 construct: Main abdominal aortas were removed and placed in Krebs-Henseleit buffer at room temperature; from tissue; host or cells: main abdominal aorta rings (3 mm) of female New Zealand White rabbits
T1 sequence (P34976 1-359): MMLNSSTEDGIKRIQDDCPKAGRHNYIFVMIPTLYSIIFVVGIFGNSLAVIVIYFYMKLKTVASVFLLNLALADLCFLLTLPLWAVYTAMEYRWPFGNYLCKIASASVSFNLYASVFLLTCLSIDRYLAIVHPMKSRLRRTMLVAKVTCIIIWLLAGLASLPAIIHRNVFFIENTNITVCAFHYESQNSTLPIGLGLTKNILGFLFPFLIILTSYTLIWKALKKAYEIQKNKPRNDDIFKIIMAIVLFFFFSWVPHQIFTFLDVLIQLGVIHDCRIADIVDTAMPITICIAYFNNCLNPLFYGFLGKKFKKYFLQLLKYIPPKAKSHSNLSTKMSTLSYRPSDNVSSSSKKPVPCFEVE
Excerpt: ANGIOTENSIN II FUNCTIONAL ASSAY: Antagonism of Contraction of Rabbit Aorta
The protocol reported by A. T Chiu and P. Timmermans (P. C. Wong, et al. Hypertension, 13, 489-497 (1989)) was followed with a few modifications. Female New Zealand White rabbits weighing 2-5 kg were sedated with carbon dioxide and then sacrificed. Main abdominal aortas were removed and placed in Krebs-Henseleit buffer at room temperature. […]
______________________________________
Buffer Component mM Concentration
potassium dihydrogen phosphate
sodium bicarbonate 20.00
EDTA* disodium calcium salt
*EDTA = ethylenediamine tetraacetic acid
The buffer contained no cocaine, propanolol or steroid.
The pH of the buffer was 7.40 at 37° C. when saturated with 5%
carbon dioxide/95% oxygen.
The tissues were cleaned of extraneous connective tissue, cut into 3 mm rings, and suspended within a 10 mL tissue bath. All dilutions of peptide preparations were made with 0.3% aqueous BSA. The tissues were primed with 55 mM potassium chloride. Tissues were pre-loaded with 1 g of tension. Tension was recorded on a model 7 Grass polygraph using FT03 transducers. At the end of the equilibrium period, a control cumulative concentration-contractile response curve for angiotensin II (A II: 1×10^-10 -10^-8 M) was obtained. The tissue was washed several times until the baseline was reached. Forty five minutes later, test compound (antagonist) was added and the tissue was incubated for 30 minutes. The concentration-response curve for A II was then repeated in the presence of the test compound. One dose of antagonist was tested per tissue only. For single dose shift experiments a dose of 1 mM of test compound was used, for a full pA2 experiment multiple doses were used depending upon the potency of the antagonist.
All responses to the control agonist were calculated as a percentage of the maximum response. These points in duplicate were plotted and analyzed according to standard Schild analysis (H. O. Schild, British J Pharmacology and Chemotherapy, 2, 189-206 (1947). The pA2 values calculated for the compounds of the invention are shown in Table 6. The pA2 value is the negative logarithm of the [A]2 value. [A]2 is the concentration of antagonist which necessitates doubling the agonist concentration in order to achieve the agonist effect which was measured in the absence of antagonist.
The pA2 value, therefore, is a measure of the effectiveness of the compound as an antagonist.

Kb	SMILES
6.31 nM	CCCCN(Cc1ccc(-c2ccccc2-c2nn[nH]n2)cc1)c1scnc1C(=O)O [Example 3, 5-{N-Butyl-N-[(2'-[1H-tetrazol-5-yl]biphenyl-4-yl)methyl]amino}thiazole-4-carboxylic acid]
105 nM	CCCCN(Cc1ccc(-c2ccccc2-c2nnn[nH]2)cc1)c1nc(SC)n(C)c1C(=O)OCC [Example 1, Ethyl 4-{N-butyl-N-[(2'-[1H-tetrazol-5-yl]biphenyl-4-yl)methyl]amino}-1-methyl-2-(methylthio)imidazole-5-carboxylate]
87.1 nM	CCCCN(Cc1ccc(-c2ccccc2-c2nn[nH]n2)cc1)c1ncn(CC)c1C(=O)OC(C)(C)C [Example 5, tert-Butyl 4-{N-butyl-N-[(2'-[1H-tetrazol-5-yl]biphenyl-4-yl)methyl]amino}-1-(N-ethyl)imidazole-5-carboxylate]
1.66 nM	CCCCN(Cc1ccc(-c2ccccc2-c2nn[nH]n2)cc1)c1ncc(C(=O)O)s1 [Example 27, 2-{N-Butyl-N-[(2'-[1H-tetrazol-5-yl]biphenyl-4-yl)methyl]amino}thiazole-5-carboxylic acid]
16.6 nM	CCCCN(Cc1ccc(-c2ccccc2-c2nnn[nH]2)cc1)c1snnc1C(=O)OCC [Example 9, Ethyl 5-{N-butyl-N-[(2'-[1H-tetrazol-5-yl]biphenyl-4-yl)methyl]amino}-1,2,3-thiadiazole-4-carboxylate]
11.5 nM	CCCN(Cc1ccc(-c2ccccc2-c2nn[nH]n2)cc1)c1nn(C)cc1C(=O)O [Example 14, 1-Methyl-3-{N-propyl-N-[(2'-[1H-tetrazol-5-yl]biphenyl-4-yl)methyl]amino}pyrazole-4-carboxylic acid]
2.34 nM	CCCN(Cc1ccc(-c2ccccc2-c2nn[nH]n2)cc1)c1nc(C)c(C(=O)O)s1 [Example 29, 4-Methyl-2-{N-propyl-N-[(2'-[1H-tetrazol-5-yl]biphenyl-4-yl)methyl]amino}thiazole-5-carboxylic acid]
7.59 nM	CCCCN(Cc1ccc(-c2ccccc2-c2nn[nH]n2)cc1)c1cn(CC)cn1 [Example 6, 4-{N-Butyl-N-[(2'-[1H-tetrazol-5-yl]biphenyl-4-yl)methyl]amino}-1-(N-ethyl)imidazole]
4.37 nM	CCCCN(Cc1ccc(-c2ccccc2-c2nn[nH]n2)cc1)c1snnc1C(=O)O [Example 10, 5-[N-Butyl-N-[[2'-(1H-tetrazol-5-yl)biphenyl-4-yl]methyl]amino]-1,2,3-thiadiazole-4-carboxylic acid]
13.5 nM	CCCN(Cc1ccc(-c2ccccc2-c2nn[nH]n2)cc1)c1ncc(C(=O)O)s1 [Example 28, 2-{N-Propyl-N-[(2'-[1H-tetrazol-5-yl]biphenyl-4-yl)methyl]amino}thiazole-5-carboxylic acid]
20 nM	CCCCN(Cc1ccc(-c2ccccc2-c2nnn[nH]2)cc1)c1nncs1 [Example 12, 2-{N-Butyl-N-[(2'-[1H-tetrazol-5-yl]biphenyl-4-yl)methyl]amino}-1,3,4-thiadiazole]
2.95 nM	CCCCN(Cc1ccc(-c2ccccc2-c2nnn[nH]2)cc1)c1nnc(C(=O)OCC)s1 [Example 11, Ethyl 2-{N-Butyl-N-[(2'-[1H-tetrazol-5-yl]biphenyl-4-yl)methyl]amino}-1,3,4-thiadiazole-5-carboxylate]
27.5 nM	CCCN(Cc1ccc(-c2ccccc2-c2nn[nH]n2)cc1)c1nc(C(F)(F)F)c(C(=O)O)s1 [Example 30, 2-{N-Propyl-N-[(2'-[1H-tetrazol-5-yl]biphenyl-4-yl)methyl]amino}thiazole-4-trifluoromethyl-5-carboxylic acid]
37.2 nM	CCCc1nc(N(CCC)Cc2ccc(-c3ccccc3-c3nn[nH]n3)cc2)sc1C(=O)O [Example 31, 2-{N-Propyl-N-[(2'-[1H-tetrazol-5-yl]biphenyl-4-yl)methyl]amino}thiazole-4-propyl-5-carboxylic acid]

tested on: angiotensin receptor; assay: not given; conditions: in vivo; cited from earlier work

SMILES	blood pressure after intravenous administration
CNCC(=O)N[C@@H](CCCN=C(N)N)C(=O)N[C@H](C(=O)N[C@@H](Cc1ccc(O)cc1)C(=O)N[C@H](C(=O)N[C@@H](Cc1cnc[nH]1)C(=O)N1CCC[C@H]1C(=O)N[C@@H](C)C(=O)O)C(C)C)C(C)C [saralasin, [Sar^1,Ala^8] angiotensin II]	initial increase in blood pressure after intravenous administration
